36 compounds from patent US20240101572A1, “DIHYDROOXADIAZINONE COMPOUND AND PHARMACEUTICAL USE THEREOF” (Japan Tobacco Inc., priority 2022, published 2024) can be followed below.

The term IC50 denotes the concentration needed to halve the response being measured.

One experiment deals with full-length human PLD1 (Homo sapiens (Human), UniProt Q13393). The experiment is described as follows: Evaluation of human PLD1 enzyme inhibitory activity (Amplex Red / choline oxidase fluorescence). It is filed as biochemical. In a few lines: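 N-terminally FLAG-tagged full-length human PLD1 (1-1036), expressed in Expi293F and FLAG-purified, incubated with compound (5% DMSO final) and 1,2-diheptanoyl-sn-glycero-3-phosphocholine for 60 min at room temperature in HEPES pH 7.5 buffer. Released choline detected by Amplex Red/choline oxidase/HRP fluorescence.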
full-length human PLD1, sequence (Q13393 other isoform, or with tags, fused parts or gaps): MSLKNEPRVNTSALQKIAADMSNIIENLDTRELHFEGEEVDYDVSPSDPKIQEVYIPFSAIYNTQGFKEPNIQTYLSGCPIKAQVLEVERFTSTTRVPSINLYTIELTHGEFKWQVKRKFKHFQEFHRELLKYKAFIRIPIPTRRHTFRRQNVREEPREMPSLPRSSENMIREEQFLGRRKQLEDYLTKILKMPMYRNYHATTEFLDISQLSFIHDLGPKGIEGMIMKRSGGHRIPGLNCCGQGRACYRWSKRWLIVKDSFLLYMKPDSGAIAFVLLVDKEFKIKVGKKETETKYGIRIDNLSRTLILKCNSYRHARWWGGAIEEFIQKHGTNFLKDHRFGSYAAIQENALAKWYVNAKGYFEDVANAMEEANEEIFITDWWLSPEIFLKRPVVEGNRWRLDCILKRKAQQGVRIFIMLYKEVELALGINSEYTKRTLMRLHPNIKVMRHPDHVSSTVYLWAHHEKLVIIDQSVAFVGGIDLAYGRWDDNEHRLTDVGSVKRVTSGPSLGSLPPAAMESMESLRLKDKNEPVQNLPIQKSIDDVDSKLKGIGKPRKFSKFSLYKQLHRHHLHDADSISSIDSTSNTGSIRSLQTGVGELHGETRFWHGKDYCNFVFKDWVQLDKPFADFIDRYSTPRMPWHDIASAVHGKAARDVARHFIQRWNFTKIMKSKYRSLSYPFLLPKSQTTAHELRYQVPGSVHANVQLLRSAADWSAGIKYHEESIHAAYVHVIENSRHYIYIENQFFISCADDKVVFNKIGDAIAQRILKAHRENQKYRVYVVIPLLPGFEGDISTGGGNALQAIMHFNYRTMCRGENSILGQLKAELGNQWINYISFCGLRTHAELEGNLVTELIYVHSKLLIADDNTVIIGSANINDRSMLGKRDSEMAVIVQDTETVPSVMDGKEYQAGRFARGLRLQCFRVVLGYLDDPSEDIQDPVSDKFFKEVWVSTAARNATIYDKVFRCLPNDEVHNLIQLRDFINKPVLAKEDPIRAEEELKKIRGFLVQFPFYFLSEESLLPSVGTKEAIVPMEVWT

Another experiment concerns the target full-length human PLD2 (Homo sapiens (Human), UniProt O14939). The experiment is described as follows: Evaluation of human PLD2 enzyme inhibitory activity (Amplex Red / choline oxidase fluorescence). It is filed as biochemical. A digest of the protocol:
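Enzyme was N-terminal FLAG-tagged full-length human PLD2 (1-933), expressed in Expi293F cells and anti-FLAG purified. Compound (5% DMSO final) was incubated with enzyme (6 nmol/L solution) and 1,2-diheptanoyl-PC (6 mmol/L solution) in HEPES pH 7.5, KCl, EGTA, MgCl2, NP-40, BSA buffer for 60 min at room temperature. Choline was detected with Amplex Red/choline oxidase/HRP.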

[1] abbreviates: full-length human PLD1 enzyme, read-out: PLD1 IC50.
[2] abbreviates: full-length human PLD2 enzyme, read-out: PLD2 IC50.

Like-named read-outs stand apart in the source and are kept apart here. A value given as a limit tells only on which side of the number the result lay.

full-length human PLD2, sequence (O14939 whole entry): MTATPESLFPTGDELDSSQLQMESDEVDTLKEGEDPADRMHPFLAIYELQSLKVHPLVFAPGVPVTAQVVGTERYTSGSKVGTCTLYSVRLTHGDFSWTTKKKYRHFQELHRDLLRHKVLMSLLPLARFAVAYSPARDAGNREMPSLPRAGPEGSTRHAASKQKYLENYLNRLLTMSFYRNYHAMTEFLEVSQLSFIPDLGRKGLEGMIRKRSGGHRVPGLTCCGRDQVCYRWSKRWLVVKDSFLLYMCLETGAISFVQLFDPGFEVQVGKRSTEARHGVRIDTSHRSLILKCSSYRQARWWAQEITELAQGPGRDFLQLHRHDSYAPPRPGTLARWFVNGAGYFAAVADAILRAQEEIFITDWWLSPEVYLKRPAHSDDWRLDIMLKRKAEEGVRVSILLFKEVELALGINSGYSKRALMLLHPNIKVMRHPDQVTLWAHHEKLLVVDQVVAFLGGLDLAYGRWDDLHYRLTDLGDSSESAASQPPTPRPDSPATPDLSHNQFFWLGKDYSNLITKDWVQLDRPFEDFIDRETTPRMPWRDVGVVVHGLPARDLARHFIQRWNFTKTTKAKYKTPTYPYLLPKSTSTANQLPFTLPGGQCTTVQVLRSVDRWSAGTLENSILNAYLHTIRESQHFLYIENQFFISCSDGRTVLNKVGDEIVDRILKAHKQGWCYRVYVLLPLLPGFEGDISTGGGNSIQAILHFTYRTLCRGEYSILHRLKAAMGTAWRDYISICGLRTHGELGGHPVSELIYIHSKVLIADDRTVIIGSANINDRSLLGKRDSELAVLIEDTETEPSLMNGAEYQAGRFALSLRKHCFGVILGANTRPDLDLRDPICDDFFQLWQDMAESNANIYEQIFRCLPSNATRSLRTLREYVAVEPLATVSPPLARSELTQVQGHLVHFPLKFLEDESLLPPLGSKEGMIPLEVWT

Consider `CNC(=O)C(=O)N[C@@H](C)CN1CCC2(CC1)OC(=O)NN=C2c1ccc(C#N)cc1C(F)(F)F` [Example 327], for which the IC50 on full-length human PLD1 (setting [1]) was 110 nM; at full-length human PLD2 (setting [2]), 51 nM.
With `[2H]C([2H])([2H])NC(=O)C(=O)N[C@@H](C)C[C@]1(OC)CC[C@@]2(CC1)OC(=O)NN=C2c1cc(F)ccc1Br` [Example 2-131], the concentration for half-maximal inhibition (IC50) is 15 nM on full-length human PLD1 (column 1 of continuation tables 2-12 to 2-14, read-out: human PLD1 enzyme inhibitory activity IC50) and under 10 nM on full-length human PLD2 (column 2 of continuation tables 2-12 to 2-14, read-out: human PLD2 enzyme inhibitory activity IC50).
In the case of `C[C@@H](C[C@H]1CC[C@]2(CC1)OC(=O)NN=C2c1ccccc1OC(F)(F)F)NC(=O)c1cc(Cl)no1` [Example 111], the IC50 worked out at 17 nM on full-length human PLD1 (setting [1]) and 21 nM on full-length human PLD2 (setting [2]).
In the same order, the values of `C[C@@H](CN1CCC2(CC1)OC(=O)NN=C2c1ccc(C#N)cc1Br)NC(=O)C(=O)NC1CC1` [Example 2-064] are 27 nM and 11 nM.
In the same order, the values of `Cc1cc(C(=O)N[C@@H](C)C[C@H]2CC[C@]3(CC2)OC(=O)NN=C3c2ccccc2Br)[nH]n1` [Example 27] are 14 nM and 13 nM.
In the same order, the values of `CNC1(C(=O)N[C@@H](C)C[C@H]2CC[C@]3(CC2)OC(=O)NN=C3c2ccc(F)cc2Br)COC1` [Example 124] are 638 nM and 2740 nM.
As for `C[C@@H](C[C@H]1CC[C@]2(CC1)OC(=O)NN=C2c1ccc(F)cc1Br)NC(=O)C(F)Cl` (mixture of isomers) [Example 278], the IC50 on full-length human PLD1 (setting [1]) is 246 nM; on full-length human PLD2 (setting [2]) it was 1180 nM.
On to `CNC(=O)C(=O)N[C@@H](C)C[C@H]1CC[C@]2(CC1)OC(=O)NN=C2c1cnc(C#N)cc1C` [Example 188], for which the IC50 at full-length human PLD1 (setting [1]) came out at 44 nM; on full-length human PLD2 (setting [2]), 33 nM.
In the case of `CNC(=O)C(=O)NCC[C@H]1CC[C@]2(CC1)OC(=O)NN=C2c1ccc(F)cc1Br` [Example 47], the IC50 on full-length human PLD1 (setting [1]) was 119 nM; at full-length human PLD2 (setting [2]), under 10 nM.
In the same order, the values of `CNC(=O)C(=O)N[C@@H](C)C[C@H]1CC[C@]2(CC1)OC(=O)NN=C2c1ccc(C#N)c(C)c1` [Example 205] are 35 nM and 102 nM.
In the same order, the values of `C[C@@H](C[C@H]1CC[C@]2(CC1)OC(=O)NN=C2c1cc(OCC(F)(F)F)ccc1Br)NC(=O)c1cnn(C)c1` [Example 305] are 15 nM and under 10 nM.
On to `CNC(=O)C(=O)N[C@@H](C)C[C@]1(C#N)CC[C@@]2(CC1)OC(=O)NN=C2c1cccc(C(F)(F)F)c1Br` [Example 2-076], for which the IC50 at full-length human PLD1 (setting [1]) was 11 nM; at full-length human PLD2 (setting [2]), under 10 nM.
In the same order, the values of `CNC(=O)C(=O)N[C@@H](C)CN1CCC2(CC1)OC(=O)NN=C2c1ncccc1Br` [Example 2-028] are 45 nM and 32 nM.
The like results for `CNC(=O)C(=O)N[C@@H](C)CN1CCC2(CC1)OC(=O)NN=C2c1ccc(Cl)cc1C` [Example 216] were, in that order, 29 nM and 19 nM.
Turning to `CNC(=O)C(=O)N[C@@H](C)C[C@]1(O)CC[C@]2(CC1)OC(=O)NN=C2c1ccc(F)cc1Br` [Example 319], the IC50 at full-length human PLD1 (setting [1]) came out at 2090 nM; at full-length human PLD2 (setting [2]) it was 744 nM.
In the same order, the values of `CNC(=O)C(=O)N[C@@H](C)C[C@]1(C#N)CC[C@@]2(CC1)OC(=O)NN=C2c1cc(OC)ncc1Br` [Example 2-077] are 15 nM and under 10 nM.
The like results for `CNC(=O)C(=O)N[C@@H](C)C[C@H]1CC[C@]2(CC1)OC(=O)NN=C2c1ccc(F)cc1Br` [Example 14] were, in that order, 10 nM and under 10 nM.
The like results for `CNC(=O)C(=O)N[C@@H](C)C[C@H]1CC[C@]2(CC1)OC(=O)NN=C2c1cc(OC(F)(F)F)ccc1Br` [Example 294] were, in that order, 11 nM and under 10 nM.
Take `C[C@@H](C[C@H]1CC[C@]2(CC1)OC(=O)NN=C2c1ccc(S(C)(=O)=O)cc1Cl)NC(=O)c1cc2cc(F)ccc2o1` [Example 117]: the IC50 on full-length human PLD1 (setting [1]) came to 21 nM; at full-length human PLD2 (setting [2]), 18 nM.
With `C[C@@H](C[C@H]1CC[C@]2(CC1)OC(=O)NN=C2c1nccn1CC1CC1)NC(=O)c1cc(Cl)no1` [Example 83], the results for the IC50 at full-length human PLD1 (setting [1]) and at full-length human PLD2 (setting [2]) were 259 nM and 221 nM, respectively.
`Cc1cc(C(=O)N[C@@H](C)CN2C[C@H]3CC[C@@H](C2)[C@@]32OC(=O)NN=C2c2ccc(F)cc2Cl)[nH]n1` [Example 197]: the IC50 is 26 nM on full-length human PLD1 (setting [1]) and under 10 nM at full-length human PLD2 (setting [2]).
Turning to `CNC(=O)C(=O)N[C@@H](C)CN1CCC2(CC1)OC(=O)NN=C2c1ccc(C#N)cc1Cl` [Example 168], the figures for the IC50 at full-length human PLD1 (setting [1]) and at full-length human PLD2 (setting [2]) were 56 nM and 35 nM, respectively.
Consider `C[C@@H](CN1CCC2(CC1)OC(=O)NN=C2c1ccc(F)cc1Br)NC(=O)c1cnn(C(F)(F)F)c1` [Example 255], for which the IC50 on full-length human PLD1 (setting [1]) was determined as 32 nM; on full-length human PLD2 (setting [2]), 14 nM.
In the same order, the values of `CNC(=O)C(=O)N[C@@H](C)CN1CCC2(CC1)OC(=O)NN=C2c1cn(C)nc1I` [Example 2-043] are 33 nM and 152 nM.
The like results for `C[C@@H](C[C@H]1CC[C@]2(CC1)OC(=O)NN=C2c1ccc(OC(F)(F)F)cc1Br)NC(=O)c1cc2ccccc2o1` [Example 87] were, in that order, 39 nM and under 10 nM.
The like results for `CNC(=O)C(=O)N[C@@H](C)C[C@H]1CC[C@]2(CC1)OC(=O)NN=C2c1cc(C)ccc1C` [Example 126] were, in that order, 13 nM and under 10 nM.
Turning to `Cc1cc(C(=O)N[C@@H](C)C[C@H]2CC[C@]3(CC2)OC(=O)NN=C3c2ccc(S(C)(=O)=O)cc2)[nH]n1` [Example 9], the IC50 was found to be 83 nM at full-length human PLD1 (setting [1]) and 56 nM at full-length human PLD2 (setting [2]).
Regarding `COc1ccc(C2=NNC(=O)O[C@]23CC[C@@H](C[C@H](C)NC(=O)c2cc(Cl)no2)CC3)c(Br)c1` [Example 59], the IC50 on full-length human PLD1 (setting [1]) and on full-length human PLD2 (setting [2]) was under 10 nM in each case.
In the case of `C[C@@H](C[C@H]1CC[C@]2(CC1)OC(=O)NN=C2c1cc(C(C)(C)O)ccc1Br)NC(=O)c1cnn(C)c1` [Example 2-027], the IC50 was 13 nM on full-length human PLD1 (setting [1]) and under 10 nM at full-length human PLD2 (setting [2]).
In the same order, the values of `C[C@@H](C[C@H]1CC[C@]2(CC1)OC(=O)NN=C2c1ccc(F)cc1Br)NC(=O)c1ccccc1` [Example 40] are 13 nM and under 10 nM.
The like results for `CNC(=O)C(=O)N[C@@H](C)CN1CCC2(CO1)OC(=O)NN=C2c1cc(C#N)ccc1Br` (stereo partly drawn) [Example 2-025] were, in that order, 219 nM and 205 nM.
The like results for `C[C@@H](C[C@H]1CC[C@]2(CC1)OC(=O)NN=C2c1ccc(F)cc1I)NC(=O)NC1CC1` [Example 245] were, in that order, 40 nM and 107 nM.
As to `CNC(=O)C(=O)N[C@@H](C)C[C@H]1CC[C@]2(CC1)OC(=O)NN=C2c1cnc(N2C[C@H]3C[C@@H]2CO3)cc1C` [Example 267], the IC50 is 26 nM at full-length human PLD1 (setting [1]) and under 10 nM on full-length human PLD2 (setting [2]).
With `Cc1cc(F)ccc1C1=NNC(=O)O[C@]12CC[C@@H](C[C@H](C)NC(=O)N1CC3CCCCC3C1)CC2` (mixture of isomers) [Example 150], the IC50 at full-length human PLD1 (setting [1]) was found to be 880 nM; on full-length human PLD2 (setting [2]), 640 nM.
The like results for `C[C@@H](C[C@H]1CC[C@]2(CC1)OC(=O)NN=C2c1ccc(F)cc1Cl)NC(=O)c1cc2cc(F)ccc2o1` [Example 61] were, in that order, 14 nM and 11 nM.
The like results for `CNC(=O)C(=O)N[C@@H](C)CN1CCC2(CC1)OC(=O)NN=C2c1cccn2nccc12` [Example 2-039] were, in that order, 153 nM and 264 nM.
